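Briefly, cells in 96-well plates were exposed to five compound concentrations for 48 h, and endpoints were estimated by linear interpolation. GI50: concentration for 50% inhibition of growth. TGI is the concentration that stops growth completely.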
Columns and labels:
Assay in all cases: DTP human tumour cell line panel, 48 h
[1] = test system: ACHN renal
[2] = test system: EKVX NSCLC
[3] = test system: HS 578T breast
[4] = test system: M14 melanoma
[5] = test system: OVCAR-4 ovarian
[6] = test system: OVCAR-5 ovarian
[7] = test system: RXF 393 renal
[8] = test system: SK-MEL-5 melanoma
[9] = test system: SN12C renal
[10] = test system: SR leukemia

COc1ccc2c(c1)[C@@H](NC(C)=O)CCc1cc(OC)c(OC)c(OC)c1-2
TGI [1]: > 100 µM
TGI [2]: > 100 µM
TGI [3]: > 100 µM
TGI [4]: > 22.6 µM
TGI [5]: > 100 µM
TGI [6]: > 100 µM
TGI [7]: > 8.58 µM
TGI [8]: 0.0298 µM
TGI [9]: > 100 µM
TGI [10]: > 90.2 µM

Nc1c(C(=O)Nc2cccc(Cl)c2)sc2nc3c(cc12)C(=O)CCC3
GI50 [1]: > 20 µM
TGI [1]: > 100 µM
TGI [2]: > 100 µM
GI50 [3]: 0.422 µM
TGI [3]: > 100 µM
GI50 [4]: 0.485 µM
TGI [4]: > 100 µM
GI50 [5]: 13.3 µM
TGI [5]: > 100 µM
GI50 [6]: 2.09 µM
TGI [6]: > 100 µM
GI50 [7]: 0.479 µM
TGI [7]: > 42.2 µM
GI50 [8]: 0.141 µM
TGI [8]: > 100 µM
GI50 [9]: 0.836 µM
TGI [9]: > 100 µM
GI50 [10]: 0.383 µM
TGI [10]: > 100 µM

CC1CCCCCC(=O)c2c(O)cc(O)cc2CC(=O)O1 (centres undefined)
TGI [1]: > 100 µM
TGI [2]: > 100 µM
TGI [3]: > 100 µM
TGI [4]: > 100 µM
TGI [5]: > 100 µM
TGI [6]: > 100 µM
TGI [7]: > 100 µM
TGI [8]: > 100 µM
TGI [9]: > 100 µM
TGI [10]: > 100 µM

COC(=O)N[C@H]1CCc2cc(OC)c(OC)c(OC)c2-c2ccc(SC)c(=O)cc21
GI50 [1]: < 0.01 µM
TGI [1]: > 100 µM
GI50 [2]: < 0.01 µM
TGI [2]: > 100 µM
GI50 [3]: < 0.01 µM
TGI [3]: > 100 µM
GI50 [4]: < 0.01 µM
TGI [4]: > 26.9 µM
GI50 [5]: 0.0205 µM
TGI [5]: > 100 µM
GI50 [6]: < 0.01 µM
TGI [6]: > 100 µM
GI50 [7]: < 0.01 µM
TGI [7]: > 100 µM
GI50 [8]: < 0.01 µM
TGI [8]: 0.0191 µM
GI50 [9]: < 0.01 µM
TGI [9]: > 100 µM
GI50 [10]: < 0.01 µM
TGI [10]: > 100 µM

Source: PubChem BioAssay (NCI)
